According to patent US9962369B2, “Methods and compositions for transdermal delivery” (SPRAYABLE HOLDINGS, INC., priority 2014, dated 2018):

Experiment: Transdermal delivery of melatonin: plasma level of melatonin after applying composition to skin of a subject
Conditions: human, plasma, topical, 3 mg, Plasma level of melatonin; for concentration at 4 h / concentration at 4 hr: 4 hr after transdermal administration; for concentration at 8 h / concentration at 8 hr: 8 hr after transdermal administration; for concentration at 0 h / concentration at 0 hr: 0 hr after transdermal administration; for concentration at 1 h / concentration at 1 hr: 1 hr after transdermal administration; for concentration at 2 h / concentration at 2 hr: 2 hr after transdermal administration; for concentration at 0 hr / concentration at 1 hr / concentration at 2 hr / concentration at 4 hr / concentration at 8 hr: 0.30 mL applied to skin
[1] = Table 20 control, A− N/A, helper esters 0 mM, 2.0 mL applied
[2] = Tryptophan butyl ester hydrochloride 235.90 mM, 0.3 mL applied to skin
[3] = Tryptophan ethyl ester hydrochloride 260.47 mM, 0.3 mL applied to skin
[4] = Tryptophan isopropyl ester hydrochloride 247.52 mM, 0.3 mL applied to skin
[5] = Tyrosine isopropyl ester 269.50 mM
[6] = Tyrosine pentyl ester 243.25 mM
[7] = salt of tryptophan isopropyl ester, A− = AcO^−, 228.48 mM, 0.30 mL applied
[8] = salt of tryptophan isopropyl ester, A− = Benzoate ion, 189.98 mM, 0.30 mL applied
[9] = salt of tryptophan isopropyl ester, A− = Br^−, 220.92 mM, 0.30 mL applied
[10] = salt of tryptophan isopropyl ester, A− = Citrate ion, 159.67 mM, 0.30 mL applied

## COc1ccc2[nH]cc(CCNC(C)=O)c2c1 [Melatonin]
[1]
  concentration at 4 h: 0.1 ng/mL
  concentration at 8 h: 0.1 ng/mL
[2]
  concentration at 0 h: 0 ng/mL
  concentration at 1 h: 1.8 ng/mL
  concentration at 2 h: 1.9 ng/mL
  concentration at 4 h: 1.7 ng/mL
  concentration at 8 h: 1.7 ng/mL
[3]
  concentration at 0 h: 0 ng/mL
  concentration at 1 h: 2 ng/mL
  concentration at 2 h: 2.2 ng/mL
  concentration at 4 h: 1.9 ng/mL
  concentration at 8 h: 1.8 ng/mL
[4]
  concentration at 2 h: 2.8 ng/mL
  concentration at 4 h: 2.7 ng/mL
  concentration at 8 h: 2.5 ng/mL
[5]
  concentration at 0 hr: 0 ng/mL
  concentration at 1 hr: 2.1 ng/mL
  concentration at 2 hr: 2.9 ng/mL
  concentration at 4 hr: 2.7 ng/mL
  concentration at 8 hr: 2.8 ng/mL
[6]
  concentration at 0 hr: 0 ng/mL
  concentration at 1 hr: 1.8 ng/mL
  concentration at 2 hr: 2.1 ng/mL
  concentration at 4 hr: 2.2 ng/mL
  concentration at 8 hr: 2.1 ng/mL
Tyrosine propyl ester 269.5 mM
  concentration at 0 hr: 0 ng/mL
  concentration at 1 hr: 2 ng/mL
  concentration at 2 hr: 2.5 ng/mL
  concentration at 4 hr: 2.6 ng/mL
  concentration at 8 hr: 2.6 ng/mL
[7]
  concentration at 0 h: 0 ng/mL
  concentration at 1 h: 1.9 ng/mL
  concentration at 2 h: 2.2 ng/mL
  concentration at 4 h: 2.1 ng/mL
  concentration at 8 h: 2 ng/mL
[8]
  concentration at 0 h: 0 ng/mL
  concentration at 1 h: 1.8 ng/mL
  concentration at 2 h: 1.8 ng/mL
  concentration at 4 h: 2 ng/mL
  concentration at 8 h: 1.7 ng/mL
[9]
  concentration at 0 h: 0 ng/mL
  concentration at 1 h: 2.4 ng/mL
  concentration at 2 h: 2.9 ng/mL
  concentration at 4 h: 2.6 ng/mL
  concentration at 8 h: 2.6 ng/mL
[10]
  concentration at 0 h: 0 ng/mL
  concentration at 1 h: 2.1 ng/mL
  concentration at 2 h: 2.3 ng/mL
  concentration at 4 h: 2.4 ng/mL
  concentration at 8 h: 2.1 ng/mL
Salt of tryptophan isopropyl ester, A− = Cl^−, 247.52 mM, 0.30 mL applied
  concentration at 0 h: 0 ng/mL
